Assay type in all cases: biochemical
Assay [1] addresses T1, DVU0408 (Nitratidesulfovibrio vulgaris, UniProt Q72F10).
T1 construct: gene DVU_0408; full length (gene 2148 bp, about 715 residues), GGDEF-EAL response regulator; E. coli
T1 sequence (Q72F10 1-715): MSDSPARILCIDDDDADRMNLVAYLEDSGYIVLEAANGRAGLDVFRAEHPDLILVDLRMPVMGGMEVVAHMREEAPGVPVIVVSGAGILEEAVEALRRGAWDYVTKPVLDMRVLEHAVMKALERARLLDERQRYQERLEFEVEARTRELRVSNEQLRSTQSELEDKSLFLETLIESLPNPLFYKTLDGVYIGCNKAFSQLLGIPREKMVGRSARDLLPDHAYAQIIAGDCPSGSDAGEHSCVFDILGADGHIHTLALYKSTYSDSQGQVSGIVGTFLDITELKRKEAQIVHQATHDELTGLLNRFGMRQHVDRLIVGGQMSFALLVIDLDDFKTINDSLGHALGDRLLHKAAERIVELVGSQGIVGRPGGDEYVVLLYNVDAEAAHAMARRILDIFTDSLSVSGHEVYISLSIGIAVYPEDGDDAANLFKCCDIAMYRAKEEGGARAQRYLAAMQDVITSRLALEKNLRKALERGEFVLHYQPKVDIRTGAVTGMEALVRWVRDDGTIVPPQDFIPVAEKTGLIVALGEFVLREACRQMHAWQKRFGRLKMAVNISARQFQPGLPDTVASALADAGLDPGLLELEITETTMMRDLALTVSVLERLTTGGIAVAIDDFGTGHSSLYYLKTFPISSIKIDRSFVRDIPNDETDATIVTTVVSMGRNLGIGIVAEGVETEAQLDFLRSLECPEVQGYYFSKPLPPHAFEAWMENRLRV
Kind of assay: HPLC, c-di-GMP hydrolysis with added GTP. The conditions noted are these: 100 μM GTP, 100 μM c-di-GMP, 2 mM MnCl2; proposed allosteric at inactive GGDEF domain.

The next assay deals with T2, DVU0330 HD domain (Nitratidesulfovibrio vulgaris, UniProt Q72F84).
T2 construct: gene DVU_0330; isolated HD (HDOD, no GYP motif) domain 230-412; N-terminal 8xHis-Strep II-MBP tag cut by TEV; E. coli
T2 sequence (Q72F84 230-412): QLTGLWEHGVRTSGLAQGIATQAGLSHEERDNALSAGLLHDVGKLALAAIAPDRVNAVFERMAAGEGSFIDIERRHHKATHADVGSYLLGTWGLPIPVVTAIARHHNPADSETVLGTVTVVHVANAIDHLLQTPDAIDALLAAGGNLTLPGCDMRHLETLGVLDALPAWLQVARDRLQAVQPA
In words: absorbance at […] nm, phosphodiesterase assay. The note with it: 5 mM bis-pNPP, 1 or 10 mM MnCl2, pH 8.0.

The target in the next assay is T3, DVU1181 HD-GYP domain (Nitratidesulfovibrio vulgaris, UniProt Q72CV2).
T3 construct: gene DVU_1181; isolated HD-GYP domain 176-356; N-terminal 8xHis-Strep II-MBP tag cut by TEV; E. coli
T3 sequence (Q72CV2 176-356): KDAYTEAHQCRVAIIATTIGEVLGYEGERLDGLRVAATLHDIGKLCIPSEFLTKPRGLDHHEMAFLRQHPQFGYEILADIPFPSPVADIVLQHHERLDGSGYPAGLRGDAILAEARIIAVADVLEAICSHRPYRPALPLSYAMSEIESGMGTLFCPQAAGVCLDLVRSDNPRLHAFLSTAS
In words: absorbance at […] nm, phosphodiesterase assay. The conditions noted are these: 5 mM bis-pNPP, 1 or 10 mM MnCl2, pH 8.0.

The target of a further assay is T4, DVU2933 HD-GYP domain (Nitratidesulfovibrio vulgaris, UniProt Q727C2).
T4 construct: gene DVU_2933; isolated HD-GYP domain 282-458; N-terminal 6xHis tag cut by TEV; E. coli
T4 sequence (Q727C2 282-458): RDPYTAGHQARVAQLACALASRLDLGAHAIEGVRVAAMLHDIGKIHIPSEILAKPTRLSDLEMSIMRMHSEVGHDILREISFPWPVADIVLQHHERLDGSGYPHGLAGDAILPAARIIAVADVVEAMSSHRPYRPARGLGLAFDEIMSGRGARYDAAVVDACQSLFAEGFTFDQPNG
In words: HILIC-TOF MS, c-di-GMP hydrolysis. The conditions noted are these: 100 μM c-di-GMP, 10 mM MnCl2, pH 8.0, room temperature, 24 h.

The target in the next assay is T5, DVU0722 HD-GYP domain (Nitratidesulfovibrio vulgaris, UniProt Q72E57).
T5 construct: gene DVU_0722; isolated HD-GYP domain 336-518; N-terminal 8xHis-Strep II-MBP tag cut by TEV; E. coli
T5 sequence (Q72E57 336-518): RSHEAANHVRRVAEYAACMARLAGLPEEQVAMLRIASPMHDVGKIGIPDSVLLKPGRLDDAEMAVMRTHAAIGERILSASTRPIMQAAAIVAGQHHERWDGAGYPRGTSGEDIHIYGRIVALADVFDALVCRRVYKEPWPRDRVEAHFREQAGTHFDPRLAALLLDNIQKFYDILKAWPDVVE
Kind of assay: HILIC-TOF MS, c-di-GMP hydrolysis. The note with it: 100 μM c-di-GMP, 10 mM MnCl2, pH 8.0, room temperature, 24 h.

Assay [2] has as its target T1, DVU0408. In words: HPLC, phosphodiesterase assay, pGpG formed. The note with it: 100 μM c-di-GMP, 2 mM MnCl2.
The target of the next assay is T6, DVUA0086 HD-GYP domain (Nitratidesulfovibrio vulgaris, UniProt Q72WK3).
T6 construct: isolated HD-GYP domain 164-363; N-terminal 6xHis tag cut by TEV; E. coli; gene on native plasmid pDV1
T6 sequence (Q72WK3 164-363): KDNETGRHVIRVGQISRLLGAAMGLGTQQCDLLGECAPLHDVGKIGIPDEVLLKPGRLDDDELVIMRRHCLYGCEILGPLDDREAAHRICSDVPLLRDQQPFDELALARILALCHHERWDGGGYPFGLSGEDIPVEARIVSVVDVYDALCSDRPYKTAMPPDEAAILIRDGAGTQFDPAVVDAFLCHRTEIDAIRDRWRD
In words: HILIC-TOF MS, c-di-GMP hydrolysis. The note with it: 100 μM c-di-GMP, 10 mM MnCl2, pH 8.0, room temperature, 24 h.

For the compound `Nc1nc2c(ncn2[C@@H]2O[C@H](COP(=O)(O)OP(=O)(O)OP(=O)(O)O)[C@@H](O)[C@H]2O)c(=O)[nH]1` [GTP], on DVU0408 [1], the “HPLC, c-di-GMP hydrolysis with added GTP” value is reported as “There was an increase in the pGpG peak upon addition of GTP”.

As to `O=[N+]([O-])c1ccc(OP(=O)(O)Oc2ccc([N+](=O)[O-])cc2)cc1` [bis-pNPP], the “absorbance at 410 nm, phosphodiesterase assay” value at DVU0330 HD domain was “DVU0330 that lacks the GYP motif showed very low activity”; at DVU1181 HD-GYP domain it was “DVU0722 and DVU1181 showed slower activity”.

As for `Nc1nc2c(ncn2[C@@H]2O[C@@H]3COP(=O)(O)O[C@H]4[C@@H](O)[C@H](n5cnc6c(=O)[nH]c(N)nc65)O[C@@H]4COP(=O)(O)O[C@H]3[C@H]2O)c(=O)[nH]1` [c-di-GMP], the “HILIC-TOF MS, c-di-GMP hydrolysis” value at DVU2933 HD-GYP domain is “DVU2933 protein had lower activity, but again pGpG was the main product formed”; on DVU0722 HD-GYP domain, “DVU0722 protein also hydrolyzed most of the c-di-GMP to pGpG”; on DVUA0086 HD-GYP domain, “DVUA0086 protein had maximum activity and completely hydrolyzed c-di-GMP”. The “HPLC, phosphodiesterase assay, pGpG formed” value at DVU0408 [2] is recorded as “it did have PDE activity against c-di-GMP”.
